These results are taken from patent US20210379066A1, “COMBINATIONS OF POSITIVE ALLOSTERIC MODULATORS AND NICOTINIC ACETYLCHOLINE RECEPTOR AGONISTS FOR TREATING OCULAR CONDITIONS” (Oyster Point Pharma, Inc., priority 2018, published 2021).

Data set [1] is described as follows: Measured plasma Cmax after nasal spray (Example 4). Format: in vivo. To be noted: human, inhaled or intranasal; blood plasma of 30 individuals; nasal spray of 1.1% compound 1 free base (2.0% hemi-galactarate dihydrate), 200 microliters total, about 2216 micrograms free base. On the procedure: A dose of a nAChR agonist, or a pharmaceutically acceptable salt thereof, is administered to an individual. Examples of dose and volume ranges are described herein.
A blood sample is collected from an individual before administration of a nAChR agonist, or a pharmaceutically acceptable salt thereof. After administration of the nAChR agonist, or a pharmaceutically acceptable salt thereof, to the individual, multiple blood samples are collected over a period of time at certain intervals. For instance, blood samples are collected at 10 minutes, 20 minutes, 30 minutes, 1 hour, 2 hours, 3 hours, and 4 hours after administration of the nAChR agonist, or a pharmaceutically acceptable salt thereof.
Blood samples (4 mL in K2EDTA tubes) are collected from an arm vein into Vacutainer tubes containing K2EDTA. […]
All pharmacokinetic (PK) analyses and reporting are performed according to generally accepted standard operating procedures and protocol specifications. Pharmacokinetic parameters are calculated by use of generally accepted software tools, for instance Phoenix® WinNonlin® 8.0.
A plasma concentration time plot is created by plotting the concentration of the nAChR agonist, or pharmaceutically acceptable salt thereof, as a function of time. Cmax is calculated by inspection of an individual's plasma concentration time plot. […] The Cmax is calculated for an individual after a treatment. […]

Data set [2] addresses nAChR subtype alpha3beta2 (Homo sapiens, UniProt P17787+P32297). Briefly: Agonist characterisation versus ACh response (description). Format: cell-based. An excerpt:
nAChR agonist response, from which receptor activation can be determined can, for example, be generated using an appropriate cell-based assay. Cells designed to express a particular nAChR receptor subtype and generate an electrical current response when bound to and activated by a nAChR agonist can be used to characterize the agonist profile of a compound and the amount of receptor activation thus determined. An example of a generic protocol is described below.
Cells that express a particular human nAChR subtype are first exposed to ACh. ACh binds and activates the receptor, thereby evoking a current. The concentration of the ACh is chosen to elicit the maximum response of the receptor (e.g., 1280 micromolar ACh). This current is recorded as the ACh response and serves as the 100% nAChR agonist response and to which responses to other nAChR agonists are compared. After washing, the cells are exposed to a nAChR agonist at various concentrations (e.g., 0.1, 0.3, 1, 3, 10, 30, 100, and 300 micromolar). The current evoked by exposure to the nAChR agonist is measured and recorded for each nAChR concentration. This nAChR agonist response data is then normalized to unity versus the maximal ACh evoked current and plotted as a function of the logarithm of the nAChR agonist concentration. The nAChR agonist response is then calculated as a percentage of the ACh response.

The target in data set [3] is T1, human nAChR alpha4alpha6beta2 (Homo sapiens, UniProt P17787+P43681+Q15825).
T1 construct: expressed in transfected cells; host or cells: Xenopus laevis oocytes (cDNA injection)
Briefly: Agonist activity, two-electrode voltage clamp in Xenopus oocytes (Example 5). Format: cell-based. The conditions noted are these: versus ACh response. As for the experimental part:
All experiments were carried out at human nAChRs expressed in Xenopus oocytes using the method of cDNA expression. Xenopus oocytes were prepared and injected using standard procedures.
Briefly, ovaries were harvested from Xenopus Laevis females that have been deeply anesthetized by cooling at 4° C. and Tricaine methanesulfonate (MS-222 at a concentration of 150 mg/L) in sodium bicarbonate (300 mg/L). Once anesthetized the animal was decapitated and pithed following the rules of animal rights from the Geneva canton. A small piece of ovary was isolated for immediate preparation while the remaining part was placed at 4° C. in a sterile Barth solution containing in mM NaCl 88, KCl 1, NaHCO32.4, HEPES 10, MgSO4.7H2O 0.82, Ca(NO3)2.4H2O 0.33, CaCl2.6H2O 0.41, at pH 7.4, and supplemented with 20 μg/ml of kanamycin, 100 unit/ml penicillin. All recordings were performed at 18° C. and cells superfused with OR2 medium containing in mM: NaCl 88, KCl 2.5, HEPES 5, CaCl2.2H2O 1.8, MgCl2.6H2O 1, pH 7.4.
Currents evoked by ACh or other agonists were recorded using an automated process equipped with standard two-electrode voltage-clamp configuration (TEVC). Data were captured and analyzed using a HiQScreen proprietary data acquisition and analysis software running under Matlab (Mathworks Inc.).
Agonist Preparation: See Example 1. […] The test concentration of acetylcholine chloride was 1280 micromolar.
Experimental Procedures: Injections of cDNAs encoding for the human alpha3beta4, alpha3alpha5beta4, alpha4beta2, alpha4alpha6beta2, and alpha7 were performed in at least 95 oocytes using a proprietary automated injection device. Cellular receptor expression was examined at least two days later. Oocytes were poked with two electrodes and their membrane potential maintained, unless indicated, at −80 mV throughout the experiment.
A protocol to determine agonistic activity in the oocytes expressing the nAChRs was developed. Oocytes expressing a nAChR subtype were exposed to a brief test pulse of acetylcholine (1280 micromolar) while the holding current and response was evaluated. Cells displaying robust currents were washed for 90 seconds. The cells were then exposed to a series of increasing concentrations of a nAChR agonist for 10 seconds each at two minute intervals. The nAChR agonist test concentrations were 0.1, 0.3, 1, 3, 10, 30, 100, 300 (micromolar). The current evoked from exposure to the agonist at each concentration was recorded. For oocytes expressing alpha7 nAChRs, exposure to the agonist was reduced to 5 seconds. This process was repeated for each agonist tested against each type of nAChR expressing cell.

Chain of nAChR subtype alpha3beta2 (P32297 32-505): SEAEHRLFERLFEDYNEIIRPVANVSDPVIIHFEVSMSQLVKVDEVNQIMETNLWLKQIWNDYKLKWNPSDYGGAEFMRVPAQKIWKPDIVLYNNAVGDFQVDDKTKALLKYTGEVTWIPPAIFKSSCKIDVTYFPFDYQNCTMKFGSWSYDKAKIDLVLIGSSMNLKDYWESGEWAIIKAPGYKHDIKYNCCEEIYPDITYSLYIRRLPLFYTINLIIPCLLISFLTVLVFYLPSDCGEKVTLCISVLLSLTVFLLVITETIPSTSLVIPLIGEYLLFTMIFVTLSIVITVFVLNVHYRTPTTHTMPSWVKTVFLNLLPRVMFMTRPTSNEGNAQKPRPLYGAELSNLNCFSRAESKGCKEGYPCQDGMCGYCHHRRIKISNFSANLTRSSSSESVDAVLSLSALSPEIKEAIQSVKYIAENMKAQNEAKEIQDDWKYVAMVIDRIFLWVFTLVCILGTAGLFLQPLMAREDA
Chain of nAChR subtype alpha3beta2 (P17787 26-502): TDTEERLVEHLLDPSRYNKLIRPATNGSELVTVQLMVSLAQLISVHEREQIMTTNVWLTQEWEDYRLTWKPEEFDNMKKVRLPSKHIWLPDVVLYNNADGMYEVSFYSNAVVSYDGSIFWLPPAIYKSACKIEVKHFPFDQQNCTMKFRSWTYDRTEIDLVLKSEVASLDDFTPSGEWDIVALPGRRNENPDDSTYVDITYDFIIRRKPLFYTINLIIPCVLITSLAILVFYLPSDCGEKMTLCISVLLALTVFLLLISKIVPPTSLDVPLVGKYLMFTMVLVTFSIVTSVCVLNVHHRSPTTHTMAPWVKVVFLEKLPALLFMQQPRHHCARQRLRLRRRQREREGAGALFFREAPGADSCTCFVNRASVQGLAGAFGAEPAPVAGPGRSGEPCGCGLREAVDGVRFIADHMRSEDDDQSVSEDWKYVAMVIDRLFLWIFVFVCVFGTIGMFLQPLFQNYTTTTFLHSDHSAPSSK
T1 sequence (P43681 29-627 limits assumed): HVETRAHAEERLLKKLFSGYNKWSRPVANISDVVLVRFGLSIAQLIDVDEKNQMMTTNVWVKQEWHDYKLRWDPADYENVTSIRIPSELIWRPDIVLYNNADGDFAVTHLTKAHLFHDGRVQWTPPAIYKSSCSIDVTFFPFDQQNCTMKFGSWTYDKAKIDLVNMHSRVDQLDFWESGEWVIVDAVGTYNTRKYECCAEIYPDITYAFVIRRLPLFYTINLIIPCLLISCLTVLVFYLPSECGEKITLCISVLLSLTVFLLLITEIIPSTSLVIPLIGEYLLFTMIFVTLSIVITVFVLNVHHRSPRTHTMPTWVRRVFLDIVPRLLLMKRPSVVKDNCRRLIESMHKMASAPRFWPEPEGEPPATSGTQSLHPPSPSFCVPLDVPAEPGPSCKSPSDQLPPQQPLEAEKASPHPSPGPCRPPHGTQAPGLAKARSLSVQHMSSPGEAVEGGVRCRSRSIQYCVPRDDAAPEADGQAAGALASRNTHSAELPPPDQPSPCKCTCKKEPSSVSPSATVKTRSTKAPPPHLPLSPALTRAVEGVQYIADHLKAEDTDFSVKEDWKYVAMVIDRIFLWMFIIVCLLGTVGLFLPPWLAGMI
T1 sequence (Q15825 26-494): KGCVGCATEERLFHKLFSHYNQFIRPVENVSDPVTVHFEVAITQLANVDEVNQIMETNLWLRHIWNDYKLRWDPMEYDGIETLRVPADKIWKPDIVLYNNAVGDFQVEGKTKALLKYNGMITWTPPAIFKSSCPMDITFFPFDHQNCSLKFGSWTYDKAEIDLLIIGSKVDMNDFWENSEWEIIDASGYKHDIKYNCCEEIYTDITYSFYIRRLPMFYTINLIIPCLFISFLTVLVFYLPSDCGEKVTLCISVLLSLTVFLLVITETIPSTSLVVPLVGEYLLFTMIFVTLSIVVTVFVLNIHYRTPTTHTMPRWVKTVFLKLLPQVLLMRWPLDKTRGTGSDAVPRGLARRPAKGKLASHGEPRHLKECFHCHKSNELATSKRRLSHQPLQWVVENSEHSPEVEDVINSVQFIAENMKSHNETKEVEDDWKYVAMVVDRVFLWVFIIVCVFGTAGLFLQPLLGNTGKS
T1 sequence (P17787 26-502): as the sequence (P17787 26-502) above

In general, Cmax refers to the maximum level reached in the sampled fluid or tissue. `C(=C\[C@H]1CCNC1)/c1cncnc1` [Compound 1, (R)-5-((E)-2-pyrrolidin-3-ylvinyl)pyrimidine] had a Cmax in data set [1] of 2.92 ng/mL. The agonist character entry is “partial agonist” in data set [2] and “full agonist” in data set [3].
